In patent publication US5888405A, “Methods for controlling biofouling using amino methyl phosphonic acids” (Buckman Laboratories International Inc., priority 1997, dated 1999):
Several values for one entry are separate records, joined by “and”; a condition that tells them apart may be missing. Equal entries are not always repeated. Where two headings read alike, the source gives them in different places.

Key:
Type in all cases: cell-based
[1] = system: Bacteria of the genera Bacillus, Flavobacterium, and Pseudomonas; test: Quantitative method of evaluation of bacterial adhesion (crystal violet absorbance, % IBA), Example 4; details: for inhibition at 100 ppm: 168 h; for Score (% IBA), inhibition of bacterial adhesion: 100 ppm
From the text: (§1) The following method effectively defines the ability of a chemical compound to inhibit bacterial adhesion, or attack the formation of existing attached microorganisms, on various types of surfaces. As an overview, bioreactors were constructed in which approximately 1 in.×3 in. slides (glass or stainless steel) were fixed to the edge of the bioreactor. The lower ends (approx. 2 in.) of the slides dipped into a bacterial growth medium (pH 7) within the bioreactor which contained a known concentration of the test chemical. Following inoculation with known bacterial species, the test solutions were stirred continuously for 3 days. Unless otherwise indicated in the results below, the medium within the bioreactor was turbid by the end of three days. […] A staining procedure was then used on the slides in order to determine the amount of bacteria attached to the surfaces of the slides.
(§2) The bioreactors comprised a 400 ml glass beaker over which a lid (cover from a standard 9 cm diameter glass petri dish) was placed. With the lid removed, slides of the material of choice were taped at one end with masking tape and suspended inside the bioreactor from the top edge of the beaker. This allows the slides to be submerged within the test medium. Typically, four slides (replicates) were uniformly spaced around the bioreactor. The score presented below are the average of the four replicates. A magnetic stirring bar was placed in the bottom of the unit, the lid positioned, and the bioreactor autoclaved. Two different types of material were used as slides, stainless steel as a metal and glass as a hydrophilic surface.
(§3) The liquid medium utilized in the bioreactors was described previously by Delaquis, et al., "Detachment Of Pseudomonas fluorescens From Biofilms On Glass Surfaces In Response To Nutrient Stress", Microbial Ecology 18:199-210, 1989. The composition of the medium was:
(§4) The medium was autoclaved and then allowed to cool. If a sediment formed in the autoclaved medium, the medium was resuspended by shaking before use.
(§5) Bacteria of the genera Bacillus, Flavobacterium, and Pseudomonas were isolated from a paper mill slime deposit and maintained in continuous culture. The test organisms were separately streaked onto plate count agar and incubated at 30° C. 24 hours. With a sterile cotton swab, portions of the colonies were removed and suspended in sterile water. The suspensions were mixed very well and were adjusted to an optical density of 0.858 (Bacillus), 0.625 (Flavobacterium), and 0.775 (Pseudomonas) at 686 nm.
(§6) Biofilm Production/Chemical Testing: To four separate bioreactors was added 200 ml of the sterile medium prepared above. Chemicals to be evaluated as biodispersants were first prepared as a stock solution (40 mg/2 ml) using either water or a 9:1 acetone:methanol mixture (ac/MeOH) as a solvent. A 1.0 ml aliquot of the stock solution was added to the bioreactor using moderate, continuous magnetic stirring. This provided an initial concentration of 100 ppm for the test compound. One bioreactor (Control) contains no test compound. Aliquots (0.5 ml) from each of the three bacterial suspensions were then introduced into each bioreactor. The bioreactors were then provided with continuous stirring for three days to allow for an increase in bacterial population and deposition of cells onto the surfaces of the slides.
The test method, construction of bioreactors, bacterial growth medium, preparation of bacterial inocula, and biofilm/chemical testing are the same as those in EXAMPLE 3.
After 48 h or 168 h (1 week) of incubation at 26°-28° C. the slides were removed from the bioreactors and were positioned vertically to […] using a staining procedure. The slides were briefly flamed in order to fix the cells to the surface, and then transferred for one minute to a container of Gram Crystal Violet (DIFCO Laboratories, Detroit, Mich.). […]

[2] = system: Bacteria of the genera Bacillus, Flavobacterium, and Pseudomonas; test: Bacterial adhesion to submerged slides in bioreactor, Gram Crystal Violet staining, visual biofilm score (Example 3); design: scale not given here; details: 100 ppm, acetone, 3 days, pH 7, average of four replicates, control 3-4
From the text: as §1, §2, §3, §4, §5, §6
After the test was completed, the slides were removed from the bioreactors and were positioned vertically to permit air drying. The degree of adhesion of bacteria to the test surface was then estimated using a staining procedure. The slides were briefly flamed in order to fix the cells to the surface, and then transferred for two minutes to a container of Gram Crystal Violet (DIFCO Laboratories, Detroit, Mich.). The slides were gently rinsed under running tap water, and then carefully blotted. The degree of bacterial adhesion was then determined by visual examination and subjective scoring of each slide. […]

[3] = system: E. Aerogenes; test: Minimum inhibitory concentration, 18 hour Basal Salts test; details: for MIC: Klebsiella aerogenes, 18 h
Description: ^1 Minimum inhibitory concentration (MIC) for each compound against
the bacteria E. Aerogenes using an 18 hour Basal Salts test at pH 6 and p

[4] = glass slides, acetone, 168 h incubation at 26-28° C., 50% or greater considered effective
[5] = stainless steel (SS) slides, acetone, 168 h incubation at 26-28° C., 50% or greater considered effective

Compound | inhibition at 100 ppm ([1]; read-out: Score (% IBA), inhibition of bacterial adhesion, glass slides, acetone, 168 h incubation at 26-28° C., 50% or greater considered effective) [%] | inhibition at 100 ppm ([1]; read-out: Score (% IBA), inhibition of bacterial adhesion, stainless steel (SS) slides, acetone, 168 h incubation at 26-28° C., 50% or greater considered effective) [%] | Score (biofilm score, bacterial adhesion) ([2]; glass slides) | Score (biofilm score, bacterial adhesion) ([2]; stainless steel (SS) slides) | MIC ([3]; pH 8, read-out: Minimum inhibitory concentration (MIC), pH 8) [µg/mL] | inhibition at 100 ppm ([1]; glass slides, acetone, 168 h incubation at 26-28° C., 50% or greater considered effective, read-out: Score (% IBA), inhibition of bacterial adhesion) [%] | inhibition at 100 ppm ([1]; stainless steel (SS) slides, acetone, 168 h incubation at 26-28° C., 50% or greater considered effective, read-out: Score (% IBA), inhibition of bacterial adhesion) [%] | MIC ([3]; pH 6, pH 6, read-out: Minimum inhibitory concentration (MIC)) [µg/mL] | Score (% IBA), inhibition of bacterial adhesion [1, 4] [% IBA] | Score (% IBA), inhibition of bacterial adhesion [1, 5] [% IBA] | Minimum inhibitory concentration (MIC) ([3]; pH 8) | Minimum inhibitory concentration (MIC) ([3]; pH 6)
O=P(O)(O)CN1CCOCC1 [e] | 52 | 33 | 3 | 3 and 2.3 | > 500 |  |  |  |  |  |  | 
CCCCCCCCN(CCCCCCCC)CP(=O)(O)O [g, dioctyl amino methyl phosphonic acid] |  |  | 2.0 |  |  | 78 | 67 | > 100 |  |  |  | 
butyl amino methyl phosphonic acid |  |  |  |  |  |  |  |  | 21 | 36 | > 500 | 
decyl amino methyl phosphonic acid |  |  | 2.25 | 1.25 and 2.3 |  |  |  |  | 5 | 62 | > 500 | > 100
dodecyl amino methyl phosphonic acid |  |  |  | 3 and 4 |  |  |  |  | 43 | 54 | > 500 | > 100
hexyl amino methyl phosphonic acid |  |  | 3.0 | 1.0 and 2.0 |  |  |  |  | 36 | 42 | > 500 | > 100
octadecyl amino methyl phosphonic acid [f] |  |  |  | 2.25 and 2.70 |  |  |  |  | 81 | 39 | > 500 | > 100
